Calls of active or inactive are those of the source.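 Rule for the calls: active = compounds giving half or more protection of infected cells from virus-caused growth loss, again on retest; inactive = the rest.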 Where a SMILES comes first, the peptide text is derived from it. The star is where a group is joined. Boc = CC(C)(C)OC(=O)*; OBn = c1ccc(CO*)cc1
Test system: CEM cells HIV-1 protection, formazan growth assay
Experiment: NCI AIDS Antiviral Assay
Settings: for IC50: measured here: growth of uninfected CEM cells
Summary of the method: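 Protection of CEM cells against HIV-1 was scored from cell growth (soluble formazan) across five concentrations, with parallel uninfected cells. Lack of protection may reflect toxicity.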

SMILES	EC50 [µM]	IC50 [µM]	outcome
O=C(CC(O)(C(F)(F)F)C(F)(F)F)c1cccc(Cl)c1	> 200	182	
Cc1ccccc1/C=C1/N=C(c2ccccc2)OC1=O	> 200	33.1	
COC1/C=C/OC2(C)Oc3c(C)c(O)c4c(O)c(c(C=NN5CCCCCCCCCCCC5)c(O)c4c3C2=O)NC(=O)/C(C)=C/C=C/C(C)C(O)C(C)C(O)C(C)C(OC(C)=O)C1C (stereo not drawn)			inactive
Cc1ncc(N)c(C(=O)O)n1	> 1620	> 1620	
COc1ccc(N2CCN(c3ccc4c(c3)NCC(=O)N4)CC2)cc1	> 200	45.7	
CC(=O)OC1Cn2ccc[n+]2C1 (stereo not drawn)	> 200	> 200	
Cc1cccc2c(=O)c3cccc([C@@H](C)C(=O)O)c3oc12	> 200	67.6	
C=Cc1nc(C#N)c(N)o1			inactive
C/C(=N\NC(=S)NC(C)(C)C)c1ccccn1	> 200	0.0631	
O=[N+]([O-])c1cccc(/C=N\NS(=O)(=O)c2ccc(Cl)cc2)c1O	> 363	61.7	
COc1ccc2c(c1)CCN1CCCc3ccc(OC)cc3C21 (stereo not drawn)	> 200	51.3	
COC(=O)c1ccc(C)cc1C1CN=NC12Cc1cc(C)ccc1C2=O (stereo not drawn)	> 200	9.77	
CC1(C)COC(c2cccc(C(=O)c3ccccc3)c2)=N1	> 200	57.5	
CC1(C(=O)Nc2ccccc2)CC2(C)CC(C)(C1)C(O)NC2=O (stereo not drawn)			inactive
C=CCOCn1cnc2c(=O)[nH]c(N)nc21	> 200	> 200	
CC(=O)NNC(=S)/N=C/c1c(O)cc(C)oc1=O	> 200	> 200	
O=c1[nH]c2c(O)cccc2c2cc3c(c(O)c12)OCO3			inactive
FC1(F)SC2CCCCCCCCCCC2C1(F)F (stereo not drawn)	> 200	91.2	
O=C(O)CSc1n[nH]c(-c2ccccc2)n1	> 30.9	7.59	
CCOC(=O)N1CC2(C)C=CC1C(C(=O)OC)C2 (stereo not drawn)	> 200	> 200	
CC(=O)NC1C(OCc2ccccc2)OC(CO)C(O)C1OC(C)C(=O)NC(C)C(=O)N[C@@H](CCC(=O)OCCCNC1c2ccccc2Nc2cccc([N+](=O)[O-])c21)C(N)=O (stereo partly drawn)			inactive
NCc1ccc(S(N)(=O)=O)cc1	> 200	> 200	

SMILES	EC50 [µM]	IC50 [µM]	outcome
C[C@H](CCC1=NCCN1)[C@H]1CC[C@H]2[C@@H]3CC[C@@H]4C[C@H](O)CC[C@]4(C)[C@H]3CC[C@]12C	> 100	13.8	
Nc1nc(NCCCO)cc(=O)[nH]1	> 200	> 200	
Cc1nn(C(=O)c2ccncc2)c2c1C(c1ccc([N+](=O)[O-])cc1)SC(N)=N2 (stereo not drawn)	> 200	126	
O=c1c2c3c(sc2nc(CN2CCNCC2)n1-c1ccccc1)CCCC3	> 100	> 100	
CCC(COCC(CC)C(=O)O)C(=O)O (stereo not drawn)			inactive
COC(=O)C(=O)C(C(=O)C(=O)Nc1ccc(C)cc1C)c1nc2ccccc2[nH]c1=O (stereo not drawn)	> 23.4	> 23.4	
CCOC(=O)/C(C#N)=C\c1ccc(N(CCC(=O)O)CCC(=O)O)c(I)c1	> 501	> 501	
CCN(CC)c1ncnc2c1ncn2CCNC(CO)(CO)CO	> 200	> 200	
O=C(O)c1n[nH][nH]c1=S	126	> 200	
Cn1c(=O)c2c(nc3n(Cc4ccccc4)c(=O)c(Br)cn23)n(C)c1=O	> 100	38.9	
CC(C)NC(=O)OCc1c(COC(=O)NC(C)C)c(-c2ccc(Cl)c(Cl)c2)n2c1CS(=O)(=O)C2	> 200	42.7	
C[C@H](NC(=O)c1ccccc1SC(=O)CCCC[n+]1ccccc1)C(N)=O	0.933	> 100	
Cn1c(-c2csc(-c3ccc(Cl)cc3)n2)n[nH]c1=S	> 200	> 200	
COc1ccccc1C(=O)Nc1ccc(Cl)c(C(=O)OC(C)C)c1			active
NS(=O)(=O)c1nnc(NS(=O)(=O)c2ccc(Cl)cc2)s1	> 200	> 200	
O=C(O)c1ccccc1SCc1cc(O)ccc1O	> 200	30.9	
COc1cnc([C@H]2CCC3[C@@H]4CC=C5C[C@@H](OC(C)=O)CC[C@]5(C)C4CC[C@@]32C)s1 (stereo partly drawn)	> 21.9	> 21.9	
Clc1cc(Cl)c2c(Cl)cc(Cl)c3c2c1N=S=N3			inactive
COC(=O)[C@@]1(C)CCC[C@]2(C)C3(O)C(C)C(=O)O[C@H](c4ccoc4)C3C(OC(C)=O)C21O (stereo partly drawn)	> 200	> 200	
CCOC(=O)C1C(c2ccc([N+](=O)[O-])cc2)NC(c2ccc([N+](=O)[O-])cc2)C(C(=O)OC)S1(=O)=O (stereo not drawn)	> 3.98	> 3.98	
CC(C)CC(NC(=O)OC(C)(C)C)C(=O)NC(CC(=O)OCc1ccccc1)C(=O)OCc1ccccc1 (stereo not drawn) (Boc-Leu-Asp(OBn)-OBn; configuration not given here)	> 200	33.1	

From PubChem BioAssay AID179 (DTP/NCI, 2004)
